Laboratory results reported in ChEMBL document CHEMBL3045809, “Susceptibility of adult Trichogramma nubilale (Hymenoptera: Trichogrammatidae) to selected insecticides with different modes of action” (Crop Prot, 2012).

Key:
[1] = tested on: Trichogramma nubilale; experiment: Contact toxicity against Trichogramma nubilale assessed as mortality after 24 hr by modified slight dry film method; format: functional
[2] = tested on: Trichogramma nubilale

Row | Compound | LC50 [1] [mgAi/L] | LC95 [1] [mgAi/L] | LC50 [2] [mgAi/L] | LC95 [2] [mgAi/L]
1 | CC1(C)[C@H](/C=C(\Cl)C(F)(F)F)[C@@H]1C(=O)O[C@@H](C#N)c1cccc(Oc2ccccc2)c1 (relative stereo) [REL-LAMBDA CYHALOTHRIN] | 13.69 | 127.6 |  | 
2 | CC[C@H](C)[C@H]1O[C@]2(C=C[C@@H]1C)C[C@@H]1C[C@@H](C/C=C(\C)[C@@H](O[C@H]3C[C@H](OC)[C@@H](O[C@H]4C[C@H](OC)[C@@H](O)[C@H](C)O4)[C@H](C)O3)[C@@H](C)/C=C/C=C3\CO[C@@H]4[C@H](O)C(C)=C[C@@H](C(=O)O1)[C@]34O)O2.CO[C@H]1C[C@H](O[C@H]2[C@H](C)O[C@@H](O[C@@H]3/C(C)=C/C[C@@H]4C[C@@H](C[C@]5(C=C[C@H](C)[C@@H](C(C)C)O5)O4)OC(=O)[C@@H]4C=C(C)[C@@H](O)[C@H]5OC/C(=C\C=C\[C@@H]3C)[C@]54O)C[C@@H]2OC)O[C@@H](C)[C@@H]1O [ABAMECTIN] | 3.57 | 25.42 |  | 
3 | C/C(=N\C#N)N(C)Cc1ccc(Cl)nc1 [ACETAMIPRID] | 19.24 | 167.9 |  | 
4 | CC1(C)C(C=C(Cl)Cl)C1C(=O)OC(C#N)c1cccc(Oc2ccccc2)c1 (stereo not drawn) [ALPHA-CYPERMETHRIN] | 19.48 | 176.8 |  | 
5 | C=C(C)CNc1c([S+]([O-])C(F)(F)F)c(C#N)nn1-c1c(Cl)cc(C(F)(F)F)cc1Cl (stereo not given) [BUTENE-FIPRONIL] | 0.0068 | 0.0419 |  | 
6 | CNC(=O)Oc1cccc2ccccc12 [CARBARIL] |  | 5.71 |  | 
7 | CCCCN(CCCC)SN(C)C(=O)Oc1cccc2c1OC(C)(C)C2 [CARBOSULFAN] | 0.95 | 7.4 |  | 
8 | O=C(NC(=O)c1c(F)cccc1F)Nc1cc(Cl)c(Oc2ncc(C(F)(F)F)cc2Cl)c(Cl)c1 [CHLORFLUAZURON] | 7533 | 111205 |  | 
9 | CCOP(=S)(OCC)Oc1nc(Cl)c(Cl)cc1Cl [CHLORPYRIFOS] | 0.081 | 0.45 |  | 
10 | CC1(C)C(/C=C(\Cl)C(F)(F)F)C1C(=O)OC(C#N)c1cccc(Oc2ccccc2)c1 (stereo not given) [CYHALOTHRIN] | 10.98 | 93.25 |  | 
11 | CC[S+]([O-])c1c(C#N)nn(-c2c(Cl)cc(C(F)(F)F)cc2Cl)c1N (stereo not given) [ETHIPROLE] | 4.67 | 21.35 |  | 
12 | COP(=S)(OC)Oc1ccc([N+](=O)[O-])c(C)c1 [FENITROTHION] | 2.1 | 34.74 |  | 
13 | CC1(C)C(C(=O)OC(C#N)c2cccc(Oc3ccccc3)c2)C1(C)C (stereo not given) [FENPROPATHRIN] | 150.3 | 1327.5 |  | 
14 | N#Cc1nn(-c2c(Cl)cc(C(F)(F)F)cc2Cl)c(N)c1[S+]([O-])C(F)(F)F (stereo not given) [FIPRONIL] | 0.29 | 1.82 |  | 
15 | O=C(NC(=O)c1c(F)cccc1F)Nc1cc(Cl)c(OC(F)(F)C(F)F)c(Cl)c1 [HEXAFLUMURON] | 9672 | 51197 |  | 
16 | O=[N+]([O-])/N=C1\NCCN1Cc1ccc(Cl)nc1 [IMIDACLOPRID] | 311.9 | 2675 |  | 
17 | O=[N+]([O-])/N=C1\NCCN1Cc1cnc(Cl)s1 [IMIDACLOTHIZ] | 75.27 | 636.5 |  | 
18 | CNC(=O)Oc1ccccc1C(C)C [ISOPROCARB] | 0.12 | 0.95 |  | 
19 | CNC(=O)Oc1cccc(C)c1 [METOLCARB] | 0.53 | 5.2 |  | 
20 | CCN(Cc1ccc(Cl)nc1)/C(=C/[N+](=O)[O-])NC [NITENPYRAM] | 4.37 | 31.37 |  | 
21 | CCOP(=S)(OCC)O/N=C(\C#N)c1ccccc1 [PHOXIM] | 0.14 | 1.35 |  | 
22 | CCCSP(=O)(OCC)Oc1ccc(Br)cc1Cl (stereo not given) [PROFENOFOS] | 0.18 | 1.73 |  | 
23 | CNC(=O)Oc1cc(C)cc(C(C)C)c1 [PROMECARB] | 0.32 | 1.91 |  | 
24 | CCc1ccc(C(=O)NN(C(=O)c2cc(C)cc(C)c2)C(C)(C)C)cc1 [TEBUFENOZIDE] | 3452 | 21616 |  | 
25 | N#C/N=C1\SCCN1Cc1ccc(Cl)nc1 [THIACLOPRID] | 56.73 | 461.2 |  | 
26 | CN1COCN(Cc2cnc(Cl)s2)/C1=N\[N+](=O)[O-] [THIAMETHOXAM] | 1.86 | 13.35 |  | 
27 | CCOP(=S)(OCC)Oc1ncn(-c2ccccc2)n1 [TRIAZOPHOS] | 1.81 | 21.65 |  | 
28 | IVERMECTIN |  |  | 2.36 | 15.2
